The source of these data is PMC7057948, “A genome-wide approach for identification and characterisation of metabolite-inducible systems” (Nature Communications, 2020).

Where a name gives a salt, the structure may show the parent alone.

Assay [1] relates to FdsR. Nature of the assay: cells. The following applies: 6 h; relative to primary effector, C. necator, MM; read-out: % activation. Set-up: species or system Cupriavidus necator H16; RFP reporter induction by transcription factor biosensor, fluorescence normalised to cell density, relative to primary effector. The procedure:
(§1) To screen the 441 combinations of inducer and biosensor for cross-reactivity, we employed an automated platform (see Methods section). Strains of C. necator harbouring the inducible systems were grown in MM and transferred to a 96-well microtiter plate format. After the inducers had been extracellularly added, cells were cultured for 6 h before RFP fluorescence and cell density were measured. […] The remaining six inducible systems were activated by one or more metabolites other than their cognate inducers. This cross-reactivity may be the result of either structural resemblance, a metabolic relationship or a combination thereof. For example, L-phenylalanine is converted into L-tyrosine by the phenylalanine 4-monooxygenase PhhA (H16_RS18365). Therefore, activation of the L-tyrosine-inducible system by L-phenylalanine is more likely to be due to biological conversion of the added compound into the primary effector rather than direct interaction of L-phenylalanine with HpdA. However, since the difference between the two molecules lies in a singly hydroxyl-group, an induction by structural resemblance cannot be entirely ruled out. The same applies to phenylglyoxylate that activated the benzoate-inducible system. Phenylglyoxylate is converted by C. necator into benzoate via a two-step reaction with benzaldehyde as intermediate compound. During the first reaction, carbon dioxide is generated that may also explain induction of the formate-inducible system by the structurally dissimilar phenylglyoxylate. Since carbon dioxide can subsequently be converted into formate, it is rational to postulate that the FdsR/PH16_RS03165-inducible system is activated in this case by its primary inducer. In addition to phenylglyoxylate, the benzoate-inducible system was activated by extracellular supplementation with cyclohexanecarboxylate and cumate. Cyclohexanecarboxylate shares both a structural resemblance to benzoate and downstream  Fig. 6 Orthogonality of inducible systems. a Cross-reactivity of a set of 21 inducible systems and their corresponding primary inducers. The heat map illustrates induction of reporter gene expression in the presence of the metabolite (in %) relative to the induction mediated by the corresponding primary effector. Measurements were taken 6 h after supplementation with inducer at a final concentration of 5 mM. Data are mean, n = 4. Source data are provided as a Source Data file. b Fluorescence output of individual cells of C. necator carrying pEH263 measured by flow cytometry. The vector pEH263 contains the 3,4-dihydroxybenzoate- and [compound left out]-inducible systems controlling expression of rfp and egfp, respectively. Fluorescence was determined in the absence of inducer (orange), in the presence of 3,4-dihydroxybenzoate (blue), [compound left out] (green), and both 3,4-dihydroxybenzoate and [compound left out] (purple). Effector concentrations correspond to their respective Km’s and fluorescence was measured 2 h after inducer addition.

The test system of assay [2] is BenM. In words: cells. Set-up: species or system Cupriavidus necator H16; RFP reporter induction by transcription factor biosensor, fluorescence normalised to cell density, relative to primary effector. The following applies: 6 h; relative to primary effector, C. necator, MM; read-out: % activation. The protocol: as §1
In the next assay the test system is T1, PhgR.
T1 construct: native full-length gene, divergent to operon starting at H16_RS05530; reporter plasmid pEH155 (plasmid assigned by list order)
In words: RFP reporter dose-response in C. necator H16, Hill fit. It is filed as cell-based, Cupriavidus necator. The following applies: inducer concentration for half-maximal activation; extracellular inducer, minimal medium, 30 °C, 80 min; whole cells with chromosomal regulator copy; read-out: Km^b.

In assay [3] the target is T2, FdsR (Cupriavidus necator, UniProt Q0KDY4).
T2 construct: native full-length gene, divergent to operon starting at H16_RS03165; reporter plasmid pEH134 (plasmid assigned by list order)
T2 sequence (Q0KDY4 1-364): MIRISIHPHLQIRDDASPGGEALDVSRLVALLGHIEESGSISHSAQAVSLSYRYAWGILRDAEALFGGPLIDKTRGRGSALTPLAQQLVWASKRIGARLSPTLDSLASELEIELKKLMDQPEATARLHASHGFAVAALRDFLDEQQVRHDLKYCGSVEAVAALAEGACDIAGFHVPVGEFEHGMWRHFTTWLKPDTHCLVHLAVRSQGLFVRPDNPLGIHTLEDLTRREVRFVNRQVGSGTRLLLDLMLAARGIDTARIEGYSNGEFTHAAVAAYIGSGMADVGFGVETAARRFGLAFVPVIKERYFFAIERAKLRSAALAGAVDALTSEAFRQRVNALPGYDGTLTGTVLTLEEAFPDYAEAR
In words: cell-based. As to conditions: Escherichia coli TOP10; relative to primary effector, E. coli, LB; read-out: % activation. Set-up: RFP reporter induction by transcription factor biosensor, single time-point fluorescence in LB, relative to primary effector. The text has this: (§2) TRs often recognise molecules that are structurally similar to their primary effectors. For example, isopropyl β-D-1-thiogalactopyranoside is a commonly used structural analogue of allolactose, employed to control the expression of genes regulated by LacI. Here, the TR’s specificity was investigated to identify previously uncharacterised ligand–TR interactions and consequently extend the biosensor application to the detection of structurally similar or metabolically related compounds. To do so, the library of 21 native and heterologous inducible systems was screened against 46 compounds using an integrated robotic platform, as described in the previous section. […] Similarly to the former orthogonality screen (Fig. 6a), it should be noted that activation of reporter gene expression by the extracellularly added compounds likely indicates a structural resemblance to the primary ligand, a metabolic relationship or a combination thereof. To shed light on their cause of system activation, cultures of E. coli carrying the functional formate-, [compound left out]-, benzoate-, 3,4-dihydroxybenzoate-, acetoin- and β-alanine-inducible systems, active in this host organism, were evaluated for the same cross-reactivity (Supplementary Table 5).  Fig. 3 C. necator native systems mediate controllable gene expression in E. coli and P. putida. Single time-point fluorescence measurements of a, b E. coli and c, d P. putida carrying the C. necator-inducible gene expression systems composed of TR and promoter a, c or ‘promoter only’ version b, d. The plasmids harbouring the individual system– or promoter–reporter gene constructs are indicated. RFP fluorescence output was determined in the absence of inducer (light purple and light blue) and 6 h after extracellular supplementation with the corresponding primary effector to a final concentration of 5 mM (dark purple and dark blue). Data are mean ± SD, n = 3, *p < 0.05, **p < 0.01, ***p ≤ 0.001, ****p ≤ 0.0001, unpaired two-tailed t-test. Source data are provided as a Source Data file. All strains used in this study are listed in Supplementary Table 7. E. coli TOP10 (Life Technologies) was used for cloning and plasmid propagation. For single time-point fluorescence measurements and flow cytometric analyses, bacterial strains were propagated in Luria-Bertani (LB) medium. To determine the dose–responses and to evaluate inducer TR cross-reactivity, C. necator was cultivated in MM containing 1 g/L NH4Cl, 9 g/L Na2HPO4·12H2O, 1.5 g/L KH2PO4, 0.2 g/L MgSO4·7H2O, 0.02 g/L CaCl2·2H2O and 0.0012 g/L (NH4)5[Fe(C6H4O7)2] with 1 mL/L trace element solution SL7 (1.3 mL/L 25% (w/v) HCl, 0.07 g/L ZnCl2, 0.1 g/L MnCl2·4H2O, 0.062 g/L H3BO3, 0.190 g/L CoCl2·6H2O, 0.017 g/L CuCl2·2H2O, 0.024 g/L NiCl2·6H2O and 0.036 g/L Na2MoO4·2H2O) supplemented with 0.4% (w/v) sodium gluconate. If required, antibiotics were added to the growth medium at the following concentrations: 12.5 µg/mL tetracycline or 25 µg/mL chloramphenicol for E. coli, 50 µg/mL chloramphenicol for C. necator and 25 µg/mL tetracycline for P. putida. For solid media preparation, 15 g/L agar was added.

Assay [4] has as its target T3, BenM (Cupriavidus necator, UniProt Q0KAA5).
T3 construct: native full-length gene, divergent to operon starting at H16_RS09790; reporter plasmid pEH148 (plasmid assigned by list order)
T3 sequence (Q0KAA5 1-305): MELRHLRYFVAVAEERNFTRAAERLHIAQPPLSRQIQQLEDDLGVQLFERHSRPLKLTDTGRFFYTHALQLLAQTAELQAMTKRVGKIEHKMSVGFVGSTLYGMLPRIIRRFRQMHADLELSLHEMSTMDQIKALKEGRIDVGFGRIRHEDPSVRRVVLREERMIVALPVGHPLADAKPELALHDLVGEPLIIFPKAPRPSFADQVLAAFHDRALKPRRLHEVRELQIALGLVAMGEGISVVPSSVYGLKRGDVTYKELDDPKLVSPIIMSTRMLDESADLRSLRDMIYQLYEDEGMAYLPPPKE
In words: cell-based. The following applies: Escherichia coli TOP10; relative to primary effector, E. coli, LB; read-out: % activation. On the set-up: RFP reporter induction by transcription factor biosensor, single time-point fluorescence in LB, relative to primary effector.
Description: as §2

The target of a further assay is T4, NahR (Cupriavidus necator, UniProt G0EUZ9).
T4 construct: native full-length gene, divergent to operon starting at H16_RS08125; reporter plasmid pEH042 (plasmid assigned by list order); not the P. putida NahR
T4 sequence (G0EUZ9 1-300): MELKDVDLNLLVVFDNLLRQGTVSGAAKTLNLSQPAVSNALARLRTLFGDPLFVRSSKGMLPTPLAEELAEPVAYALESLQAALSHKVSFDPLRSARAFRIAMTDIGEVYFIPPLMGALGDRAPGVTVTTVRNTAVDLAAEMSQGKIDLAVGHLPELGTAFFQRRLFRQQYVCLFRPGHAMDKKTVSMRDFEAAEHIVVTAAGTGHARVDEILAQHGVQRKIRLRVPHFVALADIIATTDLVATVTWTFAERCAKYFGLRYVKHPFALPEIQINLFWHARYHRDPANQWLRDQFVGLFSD
Nature of the assay: RFP reporter dose-response in C. necator H16, Hill fit. Format: cell-based. As to conditions: read-out: Km^b.

For assay [5], the target named is T3, BenM. Described as above. It is filed as cell-based. As to conditions: read-out: Km^b.
Description: RFP reporter dose-response in C. necator H16, Hill fit on BenM
The next assay concerns T5, TtdR.
T5 construct: native full-length gene, divergent to operon starting at H16_RS10665; reporter plasmid pEH083 (plasmid assigned by list order)
The assay is described as above. It is filed as cell-based, Cupriavidus necator. As to conditions: inducer concentration for half-maximal activation; extracellular inducer, minimal medium, 30 °C, 80 min; whole cells with chromosomal regulator copy; read-out: Km^b.

Description for NahR: RFP reporter dose-response in C. necator H16, Hill fit on NahR
Description for PhgR: RFP reporter dose-response in C. necator H16, Hill fit on PhgR
Description for TtdR: RFP reporter dose-response in C. necator H16, Hill fit on TtdR

With `O=C(O)C(=O)c1ccccc1` [compound 4, Phenylglyoxylate], the activity at 5000 µM in the assay with FdsR [1] is 52%; in the assay on BenM [2] it was 17%; on FdsR [3] it was 0%; on BenM [4] it was 0.19%. The EC50 with PhgR worked out at 595 ± 133 µM.
On to `O=C(O)c1ccccc1O` [compound 5, Salicylate], for which the EC50 at NahR stood at 2.12 ± 0.49 µM.
Regarding `O=C(O)c1ccccc1` [compound 6, Benzoate], at BenM [5], the EC50 worked out at 12.6 ± 0.8 µM.
As for `O=C(O)C(O)C(O)C(=O)O` (centres unmarked) [compound 7, Tartrate], the EC50 in the assay on TtdR came to 61500 ± 22900 µM.
